Source: US9404081B2, “Pyruvate kinase activators for use in therapy” (AGIOS PHARMACEUTICALS, INC., priority 2011, dated 2016)

How the values were obtained:
Format in all cases: biochemical
PKR R510Q = PKR R510Q (Homo sapiens, UniProt P30613, R510Q); assay: PKR R510Q Single Point Percent Activation Assay; conditions: read-out: Act. % 510Q
Method: PKR R510Q Single Point Percent Activation Assay
(§1) A compound described herein was diluted with DMSO and tested at 1 μM concentration. The enzyme was diluted in 1× Buffer: (100 mM KCl, 50 mM Tris 7.5, 5 mM MgCl2, 1 mM DTT, 0.03% BSA). 2 μL of compound solution was first added into wells, and then 180 μL of enzyme solution was added. Assays were assembled except for ADP, and plates were stored for 60 minutes at RT. 20 μL ADP was added to start the assay and assay output was evaluated using OD340 at SpectraMax. The assay was run at room temperature.
Final concentration: PKR R510Q (40 ng/well), Tris pH 7.5 (50 mM), KCl (100 mM), MgCl2 (5 mM), ADP (0.2 mM), PEP (0.11 mM), NADH (180 μM), LDH (0.5 units, Sigma 59023), DTT (1 mM) and BSA (0.03%).

PKR wt = PKR wt (Homo sapiens, UniProt P30613); assay: PKR WT Single Point Percent Activation Assay
Sequence of PKR wt (P30613 whole entry): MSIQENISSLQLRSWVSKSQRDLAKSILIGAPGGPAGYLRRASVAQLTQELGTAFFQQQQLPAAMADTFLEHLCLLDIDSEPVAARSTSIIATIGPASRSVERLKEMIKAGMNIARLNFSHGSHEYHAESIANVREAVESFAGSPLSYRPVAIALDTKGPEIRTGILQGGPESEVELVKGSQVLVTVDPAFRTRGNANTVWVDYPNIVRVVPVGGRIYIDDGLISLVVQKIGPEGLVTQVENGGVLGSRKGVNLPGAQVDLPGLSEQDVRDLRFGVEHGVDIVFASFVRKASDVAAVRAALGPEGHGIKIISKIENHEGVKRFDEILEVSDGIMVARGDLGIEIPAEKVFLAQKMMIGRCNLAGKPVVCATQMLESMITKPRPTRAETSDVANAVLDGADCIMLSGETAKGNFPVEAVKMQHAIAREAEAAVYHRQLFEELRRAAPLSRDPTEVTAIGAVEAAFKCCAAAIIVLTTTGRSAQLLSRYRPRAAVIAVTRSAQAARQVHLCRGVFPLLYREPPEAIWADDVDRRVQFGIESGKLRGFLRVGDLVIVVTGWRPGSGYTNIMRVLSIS
Method: PKR WT Single Point Percent Activation Assay
as §1
Final concentration: PKR wt (100 ng/well), Tris pH 7.5 (50 mM), KCl (100 mM), MgCl2 (5 mM), ADP (0.48 mM), PEP (0.15 mM), NADH (180 μM), LDH (0.5 units, Sigma 59023), DTT (1 mM) and BSA (0.03%).

PKR T384W = PKR T384W (Homo sapiens, UniProt P30613, T384W); assay: PKR T384W Single Point Percent Activation Assay; conditions: read-out: Act. % 384W
Sequence of PKR T384W (P30613 whole entry T384W): as the sequence (P30613 whole entry) above, with T384W counted along it
Method: PKR T384W Single Point Percent Activation Assay
as §1, with “180 μL enzyme solution” for “180 μL of enzyme solution”
Final concentration: PKR T384W soluble (300 ng/well), Tris pH 7.5 (50 mM), KCl (100 mM), MgCl2 (5 mM), ADP (0.08 mM), PEP (0.23 mM), NADH (180 μM), LDH (0.5 units, Sigma 59023), DTT (1 mM) and BSA (0.03%).

PKR R532W = PKR R532W (Homo sapiens, UniProt P30613, R532W); assay: PKR R532W Single Point Percent Activation Assay; conditions: for activation at 1 µM: read-out: Act, % 532W
Sequence of PKR R532W (P30613 whole entry R532W): as the sequence (P30613 whole entry) above, with R532W counted along it
Method: PKR R532W Single Point Percent Activation Assay
as §1
Final concentration: PKR R532W (100 ng/well), Tris pH 7.5 (50 mM), KCl (100 mM), MgCl2 (5 mM), ADP (0.36 mM), PEP (0.1 mM), NADH (180 μM), LDH (0.5 units, Sigma 59023), DTT (1 mM) and BSA (0.03%).

Sequence of PKR R510Q (P30613 whole entry R510Q): as the sequence (P30613 whole entry) above, with R510Q counted along it

| SMILES | activation at 1 µM (PKR R510Q) | activation at 1 µM (PKR wt) | activation at 1 µM (PKR T384W) | activation at 1 µM (PKR R532W) | Act, % 532W (PKR R532W; % activation at 1 μM) |
| --- | --- | --- | --- | --- | --- |
| O=C(c1ccc(NS(=O)(=O)c2cccc3cccnc23)cc1)N1C2CCC1CN(Cc1ccc(F)cc1)C2 | 101 to 500% | 1 to 100% | 101 to 500% | 1 to 100% | – |
| C[C@@H]1CN(C(=O)c2ccc(NS(=O)(=O)c3cccc4cccnc34)cc2)CCN1C(=O)c1ccccn1 | 1 to 100% | 101 to 500% | 101 to 500% | 1 to 100% | – |
| C[C@@H]1CN(C(=O)c2ccccn2)C[C@H](C)N1C(=O)c1ccc(NS(=O)(=O)c2cccc3cccnc23)cc1 | 1 to 100% | 101 to 500% | 1 to 100% | 1 to 100% | – |
| C[C@H]1CN(Cc2ccc(F)cc2)CCN1C(=O)c1ccc(NS(=O)(=O)c2cccc3cccnc23)cc1 | 101 to 500% | 101 to 500% | 101 to 500% | 1 to 100% | – |
| CC(C)[C@H]1CN(C(C)c2ccc(F)cc2)CCN1C(=O)c1ccc(NS(=O)(=O)c2cccc3cccnc23)cc1 (some centres unmarked) | 1 to 100% | 101 to 500% | 101 to 500% | 101 to 500% | – |
| O=C(c1ccc(NS(=O)(=O)c2cccc3cccnc23)cc1)N1CCN(CC2CC2)c2ccccc21 | 1 to 100% | 101 to 500% | 101 to 500% | 101 to 500% | – |
| C[C@@H]1CN(Cc2ccc(Cl)c(F)c2)CCN1C(=O)c1ccc(NS(=O)(=O)c2cccc3cccnc23)cc1 | 1 to 100% | 101 to 500% | 1 to 100% | 101 to 500% | – |
| CC(c1c(F)cc(F)cc1F)N1CCN(C(=O)c2ccc(NS(=O)(=O)c3cccc4cccnc34)cc2)[C@H](C)C1 (some centres unmarked) | 1 to 100% | 101 to 500% | 101 to 500% | 101 to 500% | – |
| O=C(c1ccc(NS(=O)(=O)c2cccc3cccnc23)cc1)N1CCN(CC2CC2)C[C@@H]1c1ccccc1 | 1 to 100% | 1 to 100% | 1 to 100% | 1 to 100% | – |
| CC(c1c(F)ccc(F)c1F)N1CCN(C(=O)c2ccc(NS(=O)(=O)c3cccc4cccnc34)cc2)[C@H](C)C1 (some centres unmarked) | 1 to 100% | 101 to 500% | 101 to 500% | 101 to 500% | – |
| COc1cccc(CN2CCN(C(=O)c3ccc(NS(=O)(=O)c4cccc5cccnc45)cc3)[C@H](C)C2)c1OC | 1 to 100% | 101 to 500% | 101 to 500% | 101 to 500% | – |
| C[C@@H]1CN(Cc2cc(F)cc(F)c2)CCN1C(=O)c1ccc(NS(=O)(=O)c2cccc3cccnc23)cc1 | 1 to 100% | 1 to 100% | 1 to 100% | 1 to 100% | – |
| O=C1CN(Cc2cc(F)cc(F)c2)CCN1C(=O)c1ccc(NS(=O)(=O)c2cccc3cccnc23)cc1 | 1 to 100% | 101 to 500% | 101 to 500% | 101 to 500% | – |
| C[C@H]1CN(Cc2ccc(F)c(F)c2F)CCN1C(=O)c1ccc(NS(=O)(=O)c2cccc3cccnc23)cc1 [drawing 66] | 1 to 100% | 1 to 100% | 1 to 100% | – | A (a % activation at 1 μM of from 1 to 100) |
| COc1cccc(CN2CCN(C(=O)c3ccc(NS(=O)(=O)c4cccc5cccnc45)cc3)[C@@H](C)C2)c1OC | 1 to 100% | 101 to 500% | 101 to 500% | 1 to 100% | – |
| C[C@H]1CN(Cc2c(F)cc(F)cc2F)CCN1C(=O)c1ccc(NS(=O)(=O)c2cccc3cccnc23)cc1Cl | 101 to 500% | 101 to 500% | 101 to 500% | 1 to 100% | – |
| C[C@H]1CN(Cc2ccccc2F)CCN1C(=O)c1ccc(NS(=O)(=O)c2cccc3cccnc23)cc1 | 1 to 100% | 101 to 500% | 101 to 500% | 101 to 500% | – |
| CC1CN(Cc2ccc(Cl)c(F)c2)CC(C)N1C(=O)c1ccc(NS(=O)(=O)c2cccc3cccnc23)cc1 (centres unmarked) | 101 to 500% | 101 to 500% | 101 to 500% | 1 to 100% | – |
| C[C@@H]1CN(Cc2cc(F)cc(F)c2F)CCN1C(=O)c1ccc(NS(=O)(=O)c2cccc3cccnc23)cc1 | 1 to 100% | 1 to 100% | 1 to 100% | 101 to 500% | – |
| CC1CN(Cc2c(F)cc(F)cc2F)CC(C)N1C(=O)c1ccc(NS(=O)(=O)c2cccc3cccnc23)cc1 (centres unmarked) | 101 to 500% | 101 to 500% | 1 to 100% | 101 to 500% | – |
| O=C1CN(C(=O)c2ccc(NS(=O)(=O)c3cccc4cccnc34)cc2)CCN1CC1CC1 | 1 to 100% | 101 to 500% | 101 to 500% | 1 to 100% | – |
| C[C@H]1CN(Cc2cc(F)cc(F)c2)CCN1C(=O)c1ccc(NS(=O)(=O)c2cccc3cccnc23)cc1Cl | 101 to 500% | 1 to 100% | 1 to 100% | 101 to 500% | – |
| C[C@@H]1CN(Cc2c(F)ccc(F)c2F)CCN1C(=O)c1ccc(NS(=O)(=O)c2cccc3cccnc23)cc1 | 1 to 100% | 101 to 500% | 101 to 500% | 101 to 500% | – |
| C[C@H]1CN(C(=O)c2ccccn2)CCN1C(=O)c1ccc(NS(=O)(=O)c2cccc3cccnc23)cc1 | 1 to 100% | 101 to 500% | 1 to 100% | 101 to 500% | – |

More lines, main results first:

| activation at 1 µM (PKR R510Q) | activation at 1 µM (PKR wt) | activation at 1 µM (PKR T384W) | activation at 1 µM (PKR R532W) | SMILES | Act, % 532W (PKR R532W; % activation at 1 μM) |
| --- | --- | --- | --- | --- | --- |
| 101 to 500% | 101 to 500% | 101 to 500% | 101 to 500% | CC1CN(CC2CCCCC2)CC(C)N1C(=O)c1ccc(NS(=O)(=O)c2cccc3cccnc23)cc1 (centres unmarked) | – |
| 101 to 500% | 101 to 500% | 101 to 500% | 101 to 500% | C[C@@H]1CN(CC2CCOC2)CCN1C(=O)c1ccc(NS(=O)(=O)c2cccc3cccnc23)cc1 (some centres unmarked) | – |
| 101 to 500% | 101 to 500% | 101 to 500% | 1 to 100% | C[C@H]1CN(CC2CCCC2)CCN1C(=O)c1ccc(NS(=O)(=O)c2cccc3cccnc23)cc1 | – |
| 101 to 500% | 101 to 500% | 1 to 100% | 1 to 100% | C[C@H]1CN(CC2CCOC2)CCN1C(=O)c1ccc(NS(=O)(=O)c2cccc3cccnc23)cc1 (some centres unmarked) | – |
| 1 to 100% | 1 to 100% | 1 to 100% | 1 to 100% | C[C@H]1CN(CC2CCCC2)CCN1C(=O)c1ccc(NS(=O)(=O)c2cccc3cccnc23)cc1Cl | – |
| 1 to 100% | 1 to 100% | 101 to 500% | 1 to 100% | C[C@@H]1CN(CC2CCCC2)CCN1C(=O)c1ccc(NS(=O)(=O)c2cccc3cccnc23)cc1 | – |
| 1 to 100% | 1 to 100% | 1 to 100% | 1 to 100% | C[C@H]1CN(CC2CCCCO2)CCN1C(=O)c1ccc(NS(=O)(=O)c2cccc3cccnc23)cc1 (some centres unmarked) | – |
| 1 to 100% | 101 to 500% | 101 to 500% | 101 to 500% | C[C@@H]1CN(CC2CCCCO2)CCN1C(=O)c1ccc(NS(=O)(=O)c2cccc3cccnc23)cc1 (some centres unmarked) | – |
| 101 to 500% | 101 to 500% | 101 to 500% | 101 to 500% | C[C@@H]1CN(C(=O)OC2CCCOC2)CCN1C(=O)c1ccc(NS(=O)(=O)c2cccc3cccnc23)cc1 (some centres unmarked) | – |
| 101 to 500% | 101 to 500% | 101 to 500% | 101 to 500% | C[C@H]1CN(Cc2ccccc2)CCN1C(=O)c1ccc(NS(=O)(=O)c2cccc3cccnc23)cc1 | – |
| 101 to 500% | 101 to 500% | 1 to 100% | 101 to 500% | C[C@@H]1CN(CC2CCCCC2)CCN1C(=O)c1ccc(NS(=O)(=O)c2cccc3cccnc23)cc1 | – |
